In patent publication US10604555B2, “GIP derivatives and uses thereof” (priority 2018, dated 2020):
*1 amine or outer side, *2 acyl side, *3 side chain or, on linkers, in order; H or OH if unused. Where no end group is shown, it is not given here. Side-chain parts run from the residue outwards. [ ]: non-standard residue; d: D form. The star is where a group is joined. C18 diacid = O=C(O)CCCCCCCCCCCCCCCCC(=O)*; γGlu = O=C(O)[C@H](CCC(=O)[*:2])N[*:1]; Nle = CCCC[C@H](N)C(=O)O; AEEA = NCCOCCOCC(=O)O; Aib = CC(C)(N)C(=O)O

Assays:
Format in all cases: cell-based
Conditions in all cases: 0.2% HSA
human GLP-1 receptor = target: T1, human GLP-1 receptor (Homo sapiens, UniProt P43220); assay: In vitro potency (CRE luciferase; whole cells), BHK CRE luc2P hGLP-1R
T1 construct: expressed in transfected cells; host or cells: BHK (parent line BHKTS13), BHK CRE luc2P hGLP-1R clone #6
Experimental: (§1) In Vitro Potency (CRE Luciferase; Whole Cells)
(§2) The in vitro potency is the measure of human GIP, GLP-1 or glucagon receptor activation, respectively, in a whole cell assay.
(§3) In vitro potency was determined by measuring the response of the human GIP, GLP-1 or glucagon receptor in a reporter gene assay in individual cell lines. […] When the respective receptor is activated it results in the production of cAMP, which in turn results in the luciferase protein being expressed. When assay incubation is completed the luciferase substrate (luciferin) is added and the enzyme converts luciferin to oxyluciferin to produce bioluminescence. The luminescence is measured as the readout for the assay.
(§4) The cells were derived from a clone containing the CRE luciferase element and were established by further transfection with the respective receptor to obtain the current clone.
(§5) The cells were cultured at 5% CO2 in Cell Culture Medium. They were aliquoted and stored in liquid nitrogen. The cells were kept in passage and were seeded out the day before each assay.
(§6) The Assay Buffer consisted of 1% ovalbumin and 0.1% Pluronic F-68 in Assay Medium with the addition of human serum albumin at twice the indicated concentrations.
(§7) 1) Cells were plated at 5000 cells/well and incubated overnight.
(§8) 2) Cells were washed three times in PBS.
(§9) 3) Assay Medium (50 μl aliquot) with or without serum albumin was added to each well in the assay plate.
(§10) 4) Stocks of the test compounds and reference compounds were diluted to a concentration of 0.2 μM in Assay Buffer. […] 8) The cells were washed three times with PBS plus some liquid in each well. 9) A 100 μl aliquot of steadylite plus reagent was added to each well of the assay plate (reagent was light sensitive). 10) Each assay plate was covered with aluminum foil to protect it from light and shaken for 30 min at room temperature. 11) Each assay plate was read in a microtiter plate reader. Calculations and Results
The data from the microtiter plate reader was transferred to GraphPad Prism software. The software performs a non-linear regression (log(agonist) vs response).
A minimum of two replicates was measured for each sample. The reported values are averages of the replicates.

human GIP receptor = target: T2, human GIP receptor (Homo sapiens, UniProt P48546); assay: In vitro potency (CRE luciferase; whole cells), BHK CRE luc2P hGIPR
T2 construct: expressed in transfected cells; host or cells: BHK (parent line BHKTS13), BHK CRE luc2P hGIPR clone #5
T2 sequence (P48546 22-466): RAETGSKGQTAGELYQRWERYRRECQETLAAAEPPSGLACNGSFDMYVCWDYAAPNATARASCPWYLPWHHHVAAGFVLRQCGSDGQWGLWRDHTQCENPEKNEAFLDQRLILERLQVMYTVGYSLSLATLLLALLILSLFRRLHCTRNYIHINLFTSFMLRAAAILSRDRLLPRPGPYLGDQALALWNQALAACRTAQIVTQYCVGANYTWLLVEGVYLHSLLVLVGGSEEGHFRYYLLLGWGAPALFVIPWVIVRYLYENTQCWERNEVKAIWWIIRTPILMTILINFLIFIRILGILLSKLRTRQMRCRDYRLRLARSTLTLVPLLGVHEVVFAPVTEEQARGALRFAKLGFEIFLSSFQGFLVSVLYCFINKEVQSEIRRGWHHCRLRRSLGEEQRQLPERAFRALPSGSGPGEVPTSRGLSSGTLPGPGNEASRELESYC
Summary of the method: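 BHK clones carrying a CRE luciferase element, each transfected with one human receptor, were seeded at 5000 cells/well overnight. Compounds were diluted in buffer with 1% ovalbumin and 0.1% Pluronic F-68, with or without human serum albumin. Luminescence was read after steadylite plus; non-linear log(agonist)-response fit, averaged over at least two replicates.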

human glucagon receptor = target: T3, human glucagon receptor (Homo sapiens, UniProt P47871); assay: In vitro potency (CRE luciferase; whole cells), BHK CRE luc2P hGCGR
T3 construct: expressed in transfected cells; host or cells: BHK (parent line BHKTS13), BHK CRE luc2P hGCGR clone #18
Experimental: as §1, §2, §3, §4, §5, §6, §7, §8, §9, §10
The data from the microtiter plate reader was transferred to GraphPad Prism software. […]
A minimum of two replicates was measured for each sample. […]

T1 sequence (P43220 24-463): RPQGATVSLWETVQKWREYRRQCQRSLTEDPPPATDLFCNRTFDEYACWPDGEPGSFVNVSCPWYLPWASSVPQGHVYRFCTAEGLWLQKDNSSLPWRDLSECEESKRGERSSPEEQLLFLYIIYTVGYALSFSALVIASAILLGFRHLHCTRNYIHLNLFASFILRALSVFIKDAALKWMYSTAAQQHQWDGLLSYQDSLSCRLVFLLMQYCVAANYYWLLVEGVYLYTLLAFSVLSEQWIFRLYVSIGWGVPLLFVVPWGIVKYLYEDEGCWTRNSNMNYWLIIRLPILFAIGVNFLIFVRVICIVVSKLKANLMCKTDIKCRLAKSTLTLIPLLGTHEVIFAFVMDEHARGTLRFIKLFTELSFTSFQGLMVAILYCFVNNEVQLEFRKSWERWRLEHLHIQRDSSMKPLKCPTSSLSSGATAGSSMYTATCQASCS
T3 sequence (P47871 26-477): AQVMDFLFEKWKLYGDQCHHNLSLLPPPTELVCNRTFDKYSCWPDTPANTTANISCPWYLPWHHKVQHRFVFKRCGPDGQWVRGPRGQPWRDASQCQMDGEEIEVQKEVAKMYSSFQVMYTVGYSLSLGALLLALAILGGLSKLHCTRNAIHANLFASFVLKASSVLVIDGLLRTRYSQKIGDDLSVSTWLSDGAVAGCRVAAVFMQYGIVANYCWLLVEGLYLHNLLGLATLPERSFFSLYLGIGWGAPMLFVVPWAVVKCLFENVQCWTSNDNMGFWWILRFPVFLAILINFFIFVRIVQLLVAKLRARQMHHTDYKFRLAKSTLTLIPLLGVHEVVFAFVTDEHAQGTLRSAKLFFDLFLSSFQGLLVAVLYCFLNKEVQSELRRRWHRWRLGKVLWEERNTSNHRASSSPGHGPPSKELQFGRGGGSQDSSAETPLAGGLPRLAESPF

Row | EC50 (human GLP-1 receptor) | EC50 (human GIP receptor) | EC50 (human glucagon receptor) | Compound
1 | > 100 nM | 4.12 pM | > 100 nM | CCCC[C@H](NC(=O)[C@H](C)NC(=O)[C@@H](NC(=O)[C@H](CO)NC(=O)[C@H](Cc1ccc(O)cc1)NC(=O)[C@H](CC(=O)O)NC(=O)[C@H](CO)NC(=O)[C@@H](NC(=O)[C@H](Cc1ccccc1)NC(=O)[C@@H](NC(=O)CNC(=O)[C@H](CCC(=O)O)NC(=O)C(C)(C)NC(=O)[C@@H](N)Cc1ccc(O)cc1)[C@@H](C)O)[C@@H](C)CC)[C@@H](C)CC)C(=O)N[C@@H](CC(=O)O)C(=O)N[C@@H](CCCCN)C(=O)N[C@H](C(=O)N[C@@H](CCCNC(=N)N)C(=O)N[C@@H](CCC(N)=O)C(=O)N[C@@H](CCC(N)=O)C(=O)N[C@@H](CC(=O)O)C(=O)N[C@@H](Cc1ccccc1)C(=O)N[C@H](C(=O)N[C@@H](CCCCNC(=O)COCCOCCNC(=O)COCCOCCNC(=O)CC[C@H](NC(=O)CCCCCCCCCCCCCCCCC(=O)O)C(=O)O)C(=O)N[C@@H](Cc1c[nH]c2ccccc12)C(=O)N[C@@H](CC(C)C)C(=O)N[C@@H](CC(C)C)C(=O)N[C@@H](C)C(=O)N[C@@H](CCC(N)=O)C(=O)N[C@@H](CCCCN)C(=O)NCC(=O)N[C@@H](CCCCN)C(=O)N[C@@H](CCC(=O)O)C(=O)N[C@@H](CCC(=O)O)C(=O)N[C@@H](CC(=O)O)C(=O)N[C@@H](Cc1c[nH]c2ccccc12)C(=O)N[C@@H](CCCCN)C(=O)N[C@@H](Cc1c[nH]cn1)C(=O)N[C@@H](CC(N)=O)C(=O)N[C@H](C(=O)N[C@H](C(=O)N[C@@H](CCC(N)=O)C(=O)O)[C@@H](C)O)[C@@H](C)CC)C(C)C)[C@@H](C)CC [Compound 37, N{Epsilon-24}-[2-[2-[2-[[2-[2-[2-[[(4S)-4-carboxy-4-(17-carboxyheptadecanoylamino)butanoyl]amino]ethoxy]ethoxy]acetyl]amino]ethoxy]ethoxy]acetyl]-[Aib2,Nle14,Arg18,Lys24,Glu33,Glu34]-hGIP]
2 | > 100 nM | 4.47 pM | > 100 nM | CCCC[C@H](NC(=O)[C@H](C)NC(=O)[C@@H](NC(=O)[C@H](CO)NC(=O)[C@H](Cc1ccc(O)cc1)NC(=O)[C@H](CC(=O)O)NC(=O)[C@H](CO)NC(=O)[C@@H](NC(=O)[C@H](Cc1ccccc1)NC(=O)[C@@H](NC(=O)CNC(=O)[C@H](CCC(=O)O)NC(=O)C(C)(C)NC(=O)[C@@H](N)Cc1ccc(O)cc1)[C@@H](C)O)[C@@H](C)CC)[C@@H](C)CC)C(=O)N[C@@H](CC(=O)O)C(=O)N[C@@H](CCCCN)C(=O)N[C@H](C(=O)N[C@@H](CCCNC(=N)N)C(=O)N[C@@H](CCC(N)=O)C(=O)N[C@@H](CCC(N)=O)C(=O)N[C@@H](CC(=O)O)C(=O)N[C@@H](Cc1ccccc1)C(=O)N[C@H](C(=O)N[C@@H](CCCCNC(=O)CC[C@H](NC(=O)CC[C@H](NC(=O)CC[C@H](NC(=O)CCCCCCCCCCCCCCCCC(=O)O)C(=O)O)C(=O)O)C(=O)O)C(=O)N[C@@H](Cc1c[nH]c2ccccc12)C(=O)N[C@@H](CC(C)C)C(=O)N[C@@H](CC(C)C)C(=O)N[C@@H](C)C(=O)N[C@@H](CCC(N)=O)C(=O)N[C@@H](CCCCN)C(=O)NCC(=O)N[C@@H](CCCCN)C(=O)N[C@@H](CCC(=O)O)C(=O)N[C@@H](CCC(=O)O)C(=O)N[C@@H](CC(=O)O)C(=O)N[C@@H](Cc1c[nH]c2ccccc12)C(=O)N[C@@H](CCCCN)C(=O)N[C@@H](Cc1c[nH]cn1)C(=O)N[C@@H](CC(N)=O)C(=O)N[C@H](C(=O)N[C@H](C(=O)N[C@@H](CCC(N)=O)C(=O)O)[C@@H](C)O)[C@@H](C)CC)C(C)C)[C@@H](C)CC [Compound 40, N{Epsilon-24}-[(4S)-4-carboxy-4-[[(4S)-4-carboxy-4-[[(4S)-4-carboxy-4-(17-carboxyheptadecanoylamino)butanoyl]amino]butanoyl]amino]butanoyl]-[Aib2,Nle14,Arg18,Lys24,Glu33,Glu34]-hGIP]
3 | > 100 nM | 5.45 pM | > 100 nM | Y[Aib]EGTFISDYSIA[Nle]DKIHQQDFVK([AEEA-AEEA-γGlu-C18 diacid])WLLAQKGKEEDWKHNITQ [Compound 35, N{Epsilon-24}-[2-[2-[2-[[2-[2-[2-[[(4S)-4-carboxy-4-(17-carboxyheptadecanoylamino)butanoyl]amino]ethoxy]ethoxy]acetyl]amino]ethoxy]ethoxy]acetyl]-[Aib2,Nle14,Lys24,Glu33,Glu34]-hGIP]
